Experiments:
Assay type in all cases: in vivo
[1] = tested on: rice seedlings [cvs. “Koshihikari” (tall), “Tan-ginbozu” (dwarf), “Waito C” (dwarf)]; test: Shoot growth of rice seedlings, combinations with GA3; details: 7 days after treatment, 1 kg/ha ammonium sulphate added; for Shoot growth Waito C [% of Control]: 100% = 8.7 cm; for Shoot growth Tan-ginbozu [% of Control]: 100% = 9.4 cm; for Shoot growth Koshihikari [% of Control]: 100% = 17.4 cm
Protocol: (§1) Unless otherwise noted, the growth regulating proerties of different compounds in different formulations were determined under greenhouse conditions as follows: […]
(§2) Test plants were grown in plastic pots of approximately 12.5 cm in diameter in a substrate provided with sufficient nutrients and water. At an appropriate shoot length the plants were treated with aqueous sprays of the formulations. The growth-regulating action observed was confirmed at the end of the experiment by measuring the height of the plants. The results obtained were compared with the growth height of the untreated plants.
The synergizing effect of compound VII on shoot elongation in rice is shown in the results of Example 7.
Enhanced shoot growth of rice seedlings [cvs. “Koshihikari” tall), “Tan-ginbozu” (dwarf), “Waito C” (dwarf)] 7 days after treatment with combinations of compound 6 with GA3^d

[2] = tested on: wheat; test: Greenhouse shoot length test, wheat; details: for Shoot length reduction [activity, relative to control] in wheat: 1% formulations in cyclohexanone: Emulan EL = 4:1; for Shoot length [% of control] Wheat: 250 g/ha ai; for Shoot length Wheat [% of control]: 1% formulations in Atlas G 1086; on Shoot length reduction [activity, relative to control] in wheat: key: 0: no effect; +: low activity; ++: intermediate activity; +++: high activity
Protocol: as §1, §2
(§3) Assays with wheat, barley, oat, and rye plants were carried out as described above. The aqueous spray solutions were prepared as follows: […]

[3] = tested on: barley; test: Greenhouse shoot length test, barley; details: for Shoot length reduction [activity, relative to control] in barley: 1% formulations in cyclohexanone: Emulan EL = 4:1; for Shoot length [% of control] Barley: 250 g/ha ai; for Shoot length Barley [% of control]: 1% formulations in Atlas G 1086; on Shoot length reduction [activity, relative to control] in barley: key: 0: no effect; +: low activity; ++: intermediate activity; +++: high activity
Protocol: as §1, §2, §3

[4] = tested on: oats; test: Greenhouse shoot length test, oats; details: 1% formulations in cyclohexanone: Emulan EL = 4:1; further: key: 0: no effect; +: low activity; ++: intermediate activity; +++: high activity
Protocol: as §1, §2

[5] = tested on: rye; test: Greenhouse shoot length test, rye; details: 1% formulations in cyclohexanone: Emulan EL = 4:1; further: key: 0: no effect; +: low activity; ++: intermediate activity; +++: high activity
Protocol: as §1, §2

[6] = tested on: small grains and rice (wheat, barley, oats, rye, rice); test: Shoot length reduction in small grains and rice (statements across species)
Protocol: as §1, §2

Question: With `C=C1C[C@]23C[C@@]1(O)CC[C@H]2[C@@]12C=C[C@H](O)[C@@](C)(C(=O)O1)[C@H]2[C@@H]3C(=O)O` (single isomer, unassigned; ent-3) [S6, ent-3α,10,13-trihydroxy-20-norgiberrell-1,16-diene-7,19-dioic acid 19,10-lactone, reference compound] as the molecule, how does the “Shoot growth Waito C [% of Control]” value ([1]; S6 1.25 g/ha ai) read?
Answer: 115 % of Control

Question: And the “Shoot growth Tan-ginbozu [% of Control]” value ([1]; S6 1.25 g/ha ai)?
Answer: 128 % of Control

Question: What about the “Shoot growth Koshihikari [% of Control]” value ([1]; S6 1.25 g/ha ai) of the same molecule?
Answer: 109 % of Control

Question: What about the “Shoot growth Waito C [% of Control]” value ([1]; S6 2.50 g/ha ai) of the same molecule?
Answer: 143 % of Control

Question: And the “Shoot growth Tan-ginbozu [% of Control]” value ([1]; S6 2.50 g/ha ai)?
Answer: 160 % of Control

Question: And the “Shoot growth Koshihikari [% of Control]” value ([1]; S6 2.50 g/ha ai)?
Answer: 112 % of Control

Question: What about the “Shoot growth Waito C [% of Control]” value ([1]; S6 5.00 g/ha ai) of the same molecule?
Answer: 190 % of Control

Question: And the “Shoot growth Tan-ginbozu [% of Control]” value ([1]; S6 5.00 g/ha ai)?
Answer: 186 % of Control

Question: What about the “Shoot growth Koshihikari [% of Control]” value ([1]; S6 5.00 g/ha ai) of the same molecule?
Answer: 124 % of Control

Question: Which results are given for `CC1CC23CC1(O)CCC2C12CC=CC(C)(C(=O)O1)C2C3C(=O)O` (stereo not drawn) [Comp. II, exo-16,17-Dihydro-GA5]?
Answer: Shoot length reduction [activity, relative to control] in wheat [2]: +; Shoot length reduction [activity, relative to control] in barley [3]: +; Shoot length reduction [activity, relative to control] in oats [4]: 0; Shoot length reduction [activity, relative to control] in rye [5]: ++

Question: Which results are given for `O=P(O)(O)CCCl` [S1, ethephon, reference compound]?
Answer: Shoot length [% of control] Wheat ([2]; adjuvant R 15 500 g/ha): 92 % of control; Shoot length [% of control] Wheat ([2]; no adjuvant): 93 % of control; Shoot length [% of control] Barley ([3]; adjuvant R 15 500 g/ha): 101 % of control; Shoot length [% of control] Barley ([3]; no adjuvant): 95 % of control; activity-enhancing effects of ethoxylated castor oil R 15 ([6]; barley and wheat, Example 5): not or only at a far lower degree found; dosages needed to obtain results equivalent to compounds VI, VII, and IX ([6]; in these plant species, applied in commercial formulations): approximately 20 times higher

Question: How did the “dosages of active ingredient needed to obtain results equivalent to compounds VI, VII, and IX” value ([2]; in wheat) turn out when `C[N+]1(C)CCCCC1` [S3, mepiquat chloride, reference compound] was run?
Answer: approximately 100 times higher

Question: What about the “activity in the other plant species compared with wheat” value ([6]; plant species other than wheat) of the same molecule?
Answer: significantly less active

Question: How did the “Shoot length reduction [activity, relative to control] in wheat” value [2] turn out when “Dichloromethano-16,17-dihydro-GA5-13-acetate [Comp. V]” was run?
Answer: 0

Question: And the “Shoot length Wheat [% of control]” value ([2]; 1.6 g/ha ai)?
Answer: 101 % of control

Question: And the “Shoot length Wheat [% of control]” value ([2]; 3.1 g/ha ai)?
Answer: 95 % of control

Question: What about the “Shoot length Wheat [% of control]” value ([2]; 6.3 g/ha ai) of the same molecule?
Answer: 84 % of control

Question: And the “Shoot length Wheat [% of control]” value ([2]; 12.5 g/ha ai)?
Answer: 75 % of control

Question: What about the “Shoot length reduction [activity, relative to control] in barley” value [3] of the same molecule?
Answer: 0

Question: And the “Shoot length Barley [% of control]” value ([3]; 1.6 g/ha ai)?
Answer: 99 % of control

Question: And the “Shoot length Barley [% of control]” value ([3]; 3.1 g/ha ai)?
Answer: 97 % of control

Question: What about the “Shoot length Barley [% of control]” value ([3]; 6.3 g/ha ai) of the same molecule?
Answer: 82 % of control

Question: And the “Shoot length Barley [% of control]” value ([3]; 12.5 g/ha ai)?
Answer: 76 % of control

Question: And the “Shoot length reduction [activity, relative to control] in oats” value [4]?
Answer: +

Question: What about the “Shoot length reduction [activity, relative to control] in rye” value [5] of the same molecule?
Answer: +

Question: What does the source list for endo-16,17-Dihydro-GA5 [Comp. III]?
Answer: Shoot length reduction [activity, relative to control] in wheat [2]: ++; Shoot length reduction [activity, relative to control] in barley [3]: ++; Shoot length reduction [activity, relative to control] in oats [4]: 0; Shoot length reduction [activity, relative to control] in rye [5]: +++

Reference: patent US6458746B1, “Plant growth regulating formulations” (BASF Aktiengesellschaft, priority 1998, dated 2002)
